Measured values taken from US20120178666A1 (SHIRE LLC, priority 2009, published 2012).

Experiments:
[1] = Prodrug stability in simulated gastric fluid (USP); settings: 37° C.
Protocol: (§1) The remaining concentrations of the prodrugs were then assayed by HPLC.

[2] = Prodrug stability in simulated intestinal fluid (USP); settings: 37° C.
Protocol: as §1

SMILES | % prodrug remaining following incubation for: 1 h in simulated gastric fluid pH 1.1 [1] [%] | % prodrug remaining following incubation for: 2 h in simulated intestinal fluid pH 6.8 [2] [%]
CC(C)[C@H](NC(=O)CC(C)(C)CC(=O)NC(=N)NC(=O)Cc1c(Cl)cccc1Cl)C(=O)O [Compound 33, Guanfacine 3,3 dimethylglutaryl (Valine) Amide] | 79 | 99
CC(=O)N[C@@H](COC(=O)NC(=N)NC(=O)Cc1c(Cl)cccc1Cl)C(=O)O [Compound 15, Acetyl-(S)-Serine (Guanfacine) Carbamate] | 83 | 
CC(C)[C@@H](N)C(=O)NCCCC(=O)NC(=N)NC(=O)Cc1c(Cl)cccc1Cl [Compound 22, (R)-Valine aminobutanoyl Guanfacine Amide] |  | 85
CC(C)[C@H](N)C(=O)N[C@H](CCC(=O)NC(=N)NC(=O)Cc1c(Cl)cccc1Cl)C(=O)O [Compound 32, (S)-Valine-(R)-γ-Glutamate (Guanfacine) Amide] | 93 | 84
N=C(NC(=O)Cc1c(Cl)cccc1Cl)NC(=O)O[C@@H]1CN[C@H](C(=O)O)C1 [Compound 14, (S)-4-Hydroxyproline-(Guanfacine) Carbamate] | 70 | 
CC(C)[C@@H](N)C(=O)N[C@H](CCC(=O)NC(=N)NC(=O)Cc1c(Cl)cccc1Cl)C(=O)O [Compound 31, (R)-Valine-(R)-γ-Glutamate(Guanfacine) Amide] | 70 | 85
N=C(NC(=O)CC[C@H](NC(=O)[C@@H]1CCC(=O)N1)C(=O)O)NC(=O)Cc1c(Cl)cccc1Cl [Compound 6, (S)-Pyroglutamic acid-(S)-γ-Glutamate (Guanfacine) Amide] | 81 | 98
O=C(O)CC1N=C(NC(=O)Cc2c(Cl)cccc2Cl)NC1=O (centres unmarked) [Compound 4, Guanfacine fumaryl Cyclic adduct] | 97 | 84
N=C(NC(=O)Cc1c(Cl)cccc1Cl)NC(=O)NC(C(=O)O)c1ccccc1 (centres unmarked) [Compound 8, Guanfacine Phenylglycine Urea] | 96 | 100
CC(C)[C@H](NC(=O)COC(=O)NC(=N)NC(=O)Cc1c(Cl)cccc1Cl)C(=O)O [Compound 29, Guanfacine (glycolyl-(S)-Valine) Carbamate] | 80 | 99
C[C@@H](OC(=O)NC(=N)NC(=O)Cc1c(Cl)cccc1Cl)[C@H](NC(=O)[C@@H]1CCC(=O)N1)C(=O)O [Compound 19, (S)-Pyroglutamic acid-(S)-Threonine(Guanfacine) Carbamate] | 92 | 
CC(C)[C@H](N)C(=O)N[C@H](C(=O)O)[C@@H](C)OC(=O)NC(=N)NC(=O)Cc1c(Cl)cccc1Cl [Compound 20, (S)-Valine-(S)-Threonine(Guanfacine) Carbamate] | 79 | 100
N=C(NC(=O)CCNC(=O)[C@@H]1CCC(=O)N1)NC(=O)Cc1c(Cl)cccc1Cl [Compound 10, Guanfacine B-Alanine-(S)-Pyroglutamic acid Amide] | 82 | 
CC(C)[C@@H](N)C(=O)N[C@@H](COC(=O)NC(=N)NC(=O)Cc1c(Cl)cccc1Cl)C(=O)O [Compound 18, (R)-Valine-(S)-Serine(Guanfacine) Carbamate] | 74 | 
CC(C)[C@H](N)C(=O)NCCOC(=O)NC(=N)NC(=O)Cc1c(Cl)cccc1Cl [Compound 26, Guanfacine ethanolamine-(S)-Valine Carbamate] | 97 | 91
CC(C)[C@@H](N)C(=O)NCCOC(=O)NC(=N)NC(=O)Cc1c(Cl)cccc1Cl [Compound 27, Guanfacine (ethanolamine-(R)-Valine) Carbamate] | 78 | 
CC(C)[C@@H](N)C(=O)N[C@H](C(=O)O)[C@@H](C)OC(=O)NC(=N)NC(=O)Cc1c(Cl)cccc1Cl [Compound 21, (R)-Valine-(S)-Threonine(Guanfacine) Carbamate] | 83 | 

Now from value to compound:

% prodrug remaining following incubation for: 1 h in simulated gastric fluid pH 1.1 [1] [%] | % prodrug remaining following incubation for: 2 h in simulated intestinal fluid pH 6.8 [2] [%] | SMILES
85 | 81 | CCC(C)[C@@H](N)C(=O)NCCCC(=O)NC(=N)NC(=O)Cc1c(Cl)cccc1Cl (stereo partly drawn) [Compound 50, Guanfacine (GABA-(R)-Isoleucine) Amide]
99 | 97 | N=C(NC(=O)Cc1c(Cl)cccc1Cl)NC(=O)OCC[C@H](NC(=O)CCN)C(=O)O [Compound 67, β-Alanine-(S)-Homoserine (Guanfacine) Carbamate]
86 |  | CNCC(=O)N[C@@H](CCOC(=O)NC(=N)NC(=O)Cc1c(Cl)cccc1Cl)C(=O)O [Compound 66, Sarcosine-(S)-Homoserine (Guanfacine) Carbamate]
86 | 75 | CC(C)(COC(=O)NC(=N)NC(=O)Cc1c(Cl)cccc1Cl)[C@@H](O)C(=O)NCCC(=O)O [Compound 68, Guanfacine Pantothenic acid Carbamate]
65 | 91 | CC(C)[C@@H](NC(=O)c1ccc(N)cc1)C(=O)NC(=N)NC(=O)Cc1c(Cl)cccc1Cl [Compound 55, Guanfacine (R)-Valine-PABA Amide]
85 | 96 | CC(C)(CO)[C@@H](O)C(=O)NCCCOC(=O)NC(=N)NC(=O)Cc1c(Cl)cccc1Cl [Compound 69, Guanfacine Panthenol Carbamate]
70 | 87 | NC(=O)CC[C@@H]1N=C(NC(=O)Cc2c(Cl)cccc2Cl)NC1=O [Compound 38, Guanfacine-(S)-Glutamine Cyclic adduct]
89 |  | C[C@@H]1N=C(NC(=O)Cc2c(Cl)cccc2Cl)NC1=O [Compound 39, Guanfacine-(S)-Alanine Cyclic adduct]
80 |  | C[C@H]1N=C(NC(=O)Cc2c(Cl)cccc2Cl)NC1=O [Compound 51, Guanfacine-(R)-Alanine Cyclic adduct]
51 | 91 | O=C1CCN=C(NC(=O)Cc2c(Cl)cccc2Cl)N1 [Compound 34, Guanfacine β Alanine Cyclic adduct]
81 |  | N=C(NC(=O)CCCNC(=O)CC[C@H](N)C(=O)O)NC(=O)Cc1c(Cl)cccc1Cl [Compound 57, Guanfacine (GABA-(S)-Glutamate) Amide]
70 | 83 | CC(C)C[C@@H](N)C(=O)N[C@@H](CCC(=O)NC(=N)NC(=O)Cc1c(Cl)cccc1Cl)C(=O)O [Compound 42, (R)-Leucine-(S)-γ-Glutamate(Guanfacine) Amide]
84 | 97 | N=C(NC(=O)Cc1c(Cl)cccc1Cl)NC(=O)c1ccc(N)cc1 [Compound 52, Guanfacine PABA Amide]
92 | 100 | CC[C@H](C)[C@H](N)C(=O)NCCOC(=O)NC(=N)NC(=O)Cc1c(Cl)cccc1Cl [Compound 59, Guanfacine (ethanolamine-(S)-Isoleucine) Carbamate]
88 | 93 | N=C(NC(=O)Cc1c(Cl)cccc1Cl)NC(=O)OC[C@H](NC(=O)CCN)C(=O)O [Compound 64, β-Alanine-(S)-Serine (Guanfacine) Carbamate]
64 | 93 | N=C(NC(=O)CC[C@H](NC(=O)c1ccc(N)cc1)C(=O)O)NC(=O)Cc1c(Cl)cccc1Cl [Compound 70, Guanfacine PABA-(S)-Glutamate (Guanfacine) Amide]
83 |  | CC(C)[C@@H]1N=C(NC(=O)Cc2c(Cl)cccc2Cl)NC1=O [Compound 35, Guanfacine-(S)-Valine Cyclic adduct]
87 |  | N=C(NC(=O)Cc1c(Cl)cccc1Cl)NC(=O)OCCNC(=O)CN [Compound 49, Guanfacine (ethanolamine Glycine) Carbamate]
 | 100 | N=C(NC(=O)Cc1c(Cl)cccc1Cl)NC(=O)Nc1ccc(C(=O)O)cc1 [Compound 53, Guanfacine PABA Urea]
70 |  | CC(C)[C@H](N)C(=O)NCCCC(=O)NC(=N)NC(=O)Cc1c(Cl)cccc1Cl [Compound 56, Guanfacine (GABA-(S)-Valine) Amide]
83 |  | NCCCC[C@@H]1N=C(NC(=O)Cc2c(Cl)cccc2Cl)NC1=O [Compound 36, Guanfacine-(S)-Lysine Cyclic adduct]
